This is an account of results in patent US20250195463A1, “ORGANOMETALLIC COMPLEX, CONTROLLED-RELEASE MULTI-FUNCTIONAL DRUG, PHARMACEUTICAL COMPOSITION, PROCESSES FOR THE PREPARATION THEREOF AND THEIR USE” (FACULDADE DE CIÊNCIAS DA UNIVERSIDADE DE LISBOA, priority 2022, published 2025).

The subject of one series is MDA-MB-231 (FGFR−). As to the kind of experiment: MTT cytotoxicity assay. Conditions: human, 48 h. As for the experimental part: (§1) By way of example, the in vitro cytotoxicity of the conjugate RuPC1, complex 4 and peptide P2 was determined in four human breast cancer cell lines with different levels of expression of the receptor FGFR, namely MDA-MB-231 (FGFR−), MCF-7 (FGFR−), SK-BR-3 (FGFR+), and MDA-MB-134-VI (FGFR+). The cytotoxicity of RuPC1 was also determined in the stated cell lines at controlled pH 6.8 and 7.4. The cytotoxicity of the complexes 5, 8, 9, and the reference complex (2,2′-bipyridyl)(triphenylphosphane)(f-cyclopentadienyl)ruthenium(II) trifluoromethanesulfonate, [RuCp(PPh3)(bipy)][CF3SO3] (TM34) was only determined in the cell line MDA-MB-231. All the cell lines were from the American Type Culture Collection (ATCC) and were cultured in Dulbecco's Modified Eagle Medium+Glutamax-I (Gibco) supplemented with 10% fetal bovine serum (FBS) and 1% antibiotics, excepting the MDA-MB-134-VI for which it was used the double amount of FBS. The cell cultures were kept in an incubator Heraeus at 37° C. under humidified atmosphere at 5% CO2. The cell viability was evaluated resorting to the MTT ([3-(4,5-dimethylthiazol-2-yl)-2,5-diphenyltetrazolium bromide]) colorimetric assay, which is based on the reduction of the tetrazolium salt to purple formazan by mitochondrial dehydrogenases in metabolically active cells. For the assays, the cells were seeded in 96-well plates (2×10^4 to 3×10^4 cells/200 μL) and allowed to adhere overnight. The compounds were first dissolved in dimethyl sulfoxide to obtain 10 mM stock solutions, further used to prepare the working solutions, at 0.1 to 100 μM, by dilution in the cell culture medium. Alternatively, for the assays at controlled pH 6.8 and 7.4, RuPC1 was first dissolved in a solution of 15% dimethyl sulfoxide/85% phosphate buffer (10 mM in water) to obtain 1.5 mM stock solutions further incubated for 48 hours at both pH values prior to be used to prepare the working solutions, at 0.1 to 50 μM, by dilution in the cell culture medium. In both cases, after continuous exposure of the cells to the compounds for 48 h at 37° C., the medium was removed and the cells were incubated with 200 μL of MTT solution (0.5 mg/mL) for 3 h. Then, the solution was discarded and the purple formazan formed by the viable cells was dissolved in 200 μL of dimethyl sulfoxide. The cell viability (%) was determined relative to the control (cells incubated without compounds) by measuring the absorbance at 570 nm on a PowerWave Xs Bio-Tek Instruments plate spectrophotometer. The respective values of the half maximal inhibitory concentration (IC50) were calculated with the software GraphPad Prism. All the compounds were tested in at least two independent experiments, each comprising six replicates per concentration.

The next series has as its system MDA-MB-134-VI (FGFR+). Put plainly: MTT cytotoxicity assay. Conditions: human, 48 h. As for the experimental part: as §1
The next series relates to MCF-7 (FGFR−). As to the kind of experiment: MTT cytotoxicity assay. The settings on record: human, 48 h. The method, then:
as §1

The test system of the next series is SK-BR-3 (FGFR+). Put plainly: MTT cytotoxicity assay. Conditions: human, 48 h. The method, then: as §1
For series [1], the system named is four human breast cancer cell lines with different levels of expression of the receptor FGFR. As to the kind of experiment: MTT cytotoxicity assay, comparisons across the cell line panel. The series is classed as cell-based. Conditions: adopted experimental conditions (48 h). The method, then: By way of example, the in vitro cytotoxicity of the conjugate RuPC1, complex 4 and peptide P2 was determined in four human breast cancer cell lines with different levels of expression of the receptor FGFR, namely MDA-MB-231 (FGFR−), MCF-7 (FGFR−), SK-BR-3 (FGFR+), and MDA-MB-134-VI (FGFR+). The cytotoxicity of RuPC1 was also determined in the stated cell lines at controlled pH 6.8 and 7.4. The cytotoxicity of the complexes 5, 8, 9, and the reference complex (2,2′-bipyridyl)(triphenylphosphane)(f-cyclopentadienyl)ruthenium(II) trifluoromethanesulfonate, [RuCp(PPh3)(bipy)][CF3SO3] (TM34) was only determined in the cell line MDA-MB-231. […] The cell viability was evaluated resorting to the MTT ([3-(4,5-dimethylthiazol-2-yl)-2,5-diphenyltetrazolium bromide]) colorimetric assay, which is based on the reduction of the tetrazolium salt to purple formazan by mitochondrial dehydrogenases in metabolically active cells. […] The cell viability (%) was determined relative to the control (cells incubated without compounds) by measuring the absorbance at 570 nm on a PowerWave Xs Bio-Tek Instruments plate spectrophotometer. The respective values of the half maximal inhibitory concentration (IC50) were calculated with the software GraphPad Prism. […]

Where a SMILES comes first, the peptide text is derived from it. [ ]: non-standard residue; d: D form. The star is where a group is joined. Levulinoyl = CC(=O)CCC(=O)*

Consider `CC(=O)CCC(=O)N[C@@H](C(=O)N[C@@H](CO)C(=O)N1CCC[C@H]1C(=O)N1CCC[C@@H]1C(=O)N[C@@H](CC(C)C)C(=O)N[C@H](C(=O)N[C@@H](CC(C)C)C(=O)NCC(=O)N[C@@H](CCC(N)=O)C(=O)N[C@@H](CC(C)C)C(=O)N[C@@H](CC(C)C)C(=O)N[C@@H](CO)C(N)=O)[C@@H](C)O)C(C)C` [peptide P2, 4-oxopetanoyl-NH-^1valine-^2serine-^3proline-^4proline-^5leucine-^6threonine-^7leucine-^8glycine-^9glutamine-^10leucine-^11leucine-^12serine-CONH2] (Levulinoyl-[dV]SP[dP]LTLGQLLS-NH2), for which the IC50 with MDA-MB-231 (FGFR−), in the series with MDA-MB-134-VI (FGFR+), in the series with MCF-7 (FGFR−) and with SK-BR-3 (FGFR+) was above 100 µM each time. Also, the “Cytotoxic activity in words” value in series [1] is reported as “did not show significant cytotoxic activity”.
